Source: patent US20220202792A1, “METHODS AND COMPOSITIONS FOR TREATING CHRONIC INFLAMMATORY INJURY, METAPLASIA, DYSPLASIA AND CANCERS OF EPITHELIAL TISSUES” (University of Houston System, priority 2019, published 2022)

What was measured:
[1] = tested on: BE, dysplasia and cancer stem cells; test: 3D (ALI) culture of patient-matched BE, dysplasia and cancer stem cells; format: cell-based, human; details: combined with Ponatinib
From the text: FIG. 5B. Left, Scanned images of top view of BE, dysplasia and cancer stem cells (green) generated ALI structures in the presence of absence of drug combinations.

JMJD2B (KDM4B) = molecular target: T1, JMJD2B (KDM4B) (Homo sapiens, UniProt O94953); details: demethylase activity in vitro; cited from earlier work
T1 sequence (O94953 1-1096): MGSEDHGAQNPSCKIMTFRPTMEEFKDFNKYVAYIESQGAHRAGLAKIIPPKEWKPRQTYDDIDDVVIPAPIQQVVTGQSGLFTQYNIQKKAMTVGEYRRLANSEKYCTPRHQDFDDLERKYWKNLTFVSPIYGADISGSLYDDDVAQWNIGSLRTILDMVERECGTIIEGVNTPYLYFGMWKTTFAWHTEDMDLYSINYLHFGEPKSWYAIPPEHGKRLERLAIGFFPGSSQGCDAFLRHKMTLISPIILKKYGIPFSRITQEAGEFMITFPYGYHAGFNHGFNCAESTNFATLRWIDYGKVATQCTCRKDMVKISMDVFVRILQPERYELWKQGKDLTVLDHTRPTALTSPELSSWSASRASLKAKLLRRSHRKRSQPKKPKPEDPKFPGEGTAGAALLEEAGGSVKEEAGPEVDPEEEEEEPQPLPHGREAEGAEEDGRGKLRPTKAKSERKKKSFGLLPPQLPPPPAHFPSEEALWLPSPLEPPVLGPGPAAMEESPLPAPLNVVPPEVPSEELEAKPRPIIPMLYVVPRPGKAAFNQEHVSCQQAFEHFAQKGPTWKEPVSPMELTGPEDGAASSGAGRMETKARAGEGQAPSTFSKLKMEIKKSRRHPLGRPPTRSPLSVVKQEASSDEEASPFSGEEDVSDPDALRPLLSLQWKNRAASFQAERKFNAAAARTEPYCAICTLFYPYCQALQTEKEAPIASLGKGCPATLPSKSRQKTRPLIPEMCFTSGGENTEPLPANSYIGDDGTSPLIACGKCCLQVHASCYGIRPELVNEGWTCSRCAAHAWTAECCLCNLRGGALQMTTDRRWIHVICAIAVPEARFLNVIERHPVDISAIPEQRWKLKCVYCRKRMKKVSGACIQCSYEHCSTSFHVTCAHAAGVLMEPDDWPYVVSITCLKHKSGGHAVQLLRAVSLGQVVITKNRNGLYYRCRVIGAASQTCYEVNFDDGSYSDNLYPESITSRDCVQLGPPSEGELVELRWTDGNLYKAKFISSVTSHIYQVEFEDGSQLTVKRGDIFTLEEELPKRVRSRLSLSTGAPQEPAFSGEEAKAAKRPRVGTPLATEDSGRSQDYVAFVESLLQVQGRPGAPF

Clc1ccc(N/N=C(\c2ccccc2)c2ccccn2)nc1 [JIB04]
eradication of BE, dysplasia and cancer stem cells in 3D (ALI) culture [1]: eradicate | IC50 (JMJD2B (KDM4B)): ~440 nM
